Measured values taken from ChEMBL document CHEMBL1201862, “PubChem BioAssay data set” (2004).
Calls of active or inactive are those of the source.

How the values were obtained:
[1] = target: T1, Sentrin-specific protease 1 (Homo sapiens, UniProt Q9P0U3); assay: potency of human SENP1 inhibitors, dose response, biochemical, kinetic FRET (AID 651697); assay type: functional; conditions: read-out: IC50_Mean
T1 sequence (Q9P0U3 whole entry): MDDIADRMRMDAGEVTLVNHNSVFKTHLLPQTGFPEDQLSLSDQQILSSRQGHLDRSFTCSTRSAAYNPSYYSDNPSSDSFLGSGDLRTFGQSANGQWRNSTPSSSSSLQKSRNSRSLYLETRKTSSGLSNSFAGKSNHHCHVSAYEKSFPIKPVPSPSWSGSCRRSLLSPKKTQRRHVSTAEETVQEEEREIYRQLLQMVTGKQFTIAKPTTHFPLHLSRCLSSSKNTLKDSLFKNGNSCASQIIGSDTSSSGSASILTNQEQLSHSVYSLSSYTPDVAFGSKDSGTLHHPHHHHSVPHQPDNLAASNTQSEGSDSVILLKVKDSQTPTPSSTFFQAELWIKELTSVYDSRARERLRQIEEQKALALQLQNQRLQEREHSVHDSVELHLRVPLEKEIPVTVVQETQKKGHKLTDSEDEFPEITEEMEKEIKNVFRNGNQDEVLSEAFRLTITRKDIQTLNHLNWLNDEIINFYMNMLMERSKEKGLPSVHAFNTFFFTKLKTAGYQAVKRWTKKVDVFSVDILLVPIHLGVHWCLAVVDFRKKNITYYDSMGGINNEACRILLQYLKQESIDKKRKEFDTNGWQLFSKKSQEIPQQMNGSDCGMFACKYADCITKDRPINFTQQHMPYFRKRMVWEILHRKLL

[2] = target: T1, Sentrin-specific protease 1; assay: Dose response confirmation of small molecule inhibitors of the catalytic domain of the SUMO protease, SENP1 in a FRET assay.; assay type: functional; conditions: read-out: IC50_Mean
[3] = test system: Streptococcus sp. 'group A'; assay: growth inhibition of control SK(-) GAS strain, dose response, counter-screen for streptokinase expression inhibitor project, luminescence, kanamycin, BacTiterGlo, confirmation (AID 1900); assay type: functional, organism-based
Streptokinase A = target: T2, Streptokinase A (Streptococcus pyogenes serotype M1, UniProt P10520); assay: S. pyogenes streptokinase expression inhibitors, potency, dose response, plasminogen activation absorbance, OD405 (AID 1914); assay type: functional, Streptococcus pyogenes M1 GAS;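 also: secreted streptokinase activity via plasminogen activation per viability signal from cell pellet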
T2 sequence (P10520 whole entry): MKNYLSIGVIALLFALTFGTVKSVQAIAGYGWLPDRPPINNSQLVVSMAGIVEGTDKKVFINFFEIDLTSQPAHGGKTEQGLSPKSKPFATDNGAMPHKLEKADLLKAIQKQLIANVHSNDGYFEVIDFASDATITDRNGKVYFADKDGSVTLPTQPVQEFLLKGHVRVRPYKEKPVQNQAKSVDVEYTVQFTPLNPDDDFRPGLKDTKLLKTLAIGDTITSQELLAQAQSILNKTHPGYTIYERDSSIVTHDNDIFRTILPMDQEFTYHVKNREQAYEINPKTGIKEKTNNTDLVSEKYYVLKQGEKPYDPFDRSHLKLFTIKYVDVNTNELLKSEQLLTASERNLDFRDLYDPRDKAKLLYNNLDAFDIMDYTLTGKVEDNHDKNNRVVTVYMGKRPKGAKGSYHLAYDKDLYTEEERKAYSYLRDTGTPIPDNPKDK

Streptococcus = assay: Group A Streptococcus viability loss, dose response, counter-screen for streptokinase expression inhibitor project, luminescence, BacTiterGlo (AID 1915); assay type: functional, organism-based;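 also: potency for reduction of bacterial viability or growth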
INS1 = assay: beta cell apoptosis inhibitors, cytokine rescue, dose response, luminescence, retest (AID 449756); assay type: functional, cell-based; conditions: Rattus norvegicus, INS1;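 also: cell death triggered by IL-1 beta plus TNF-alpha plus IFN-gamma mixture; protective hits raise ATP signal compared with cytokine alone wells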
[4] = AlphaScreen signal interference compounds, dose response, artefact control for ARNT-TACC3 interaction inhibitor project, biochemical, luminescence, cherry-pick (AID 651705); assay type: functional;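 also: AlphaScreen bead proximity signal that flags compounds interfering with the detection technology; potency reflects signal decrease which marks the compound as an assay artifact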
[5] = HepG2 cell cytotoxicity, dose response, cytotoxicity control, ATP luminescence, cherry-pick, activator set 2 (AID 1053143); assay type: functional, cell-based
[6] = target: T3, Carboxy-terminal domain RNA polymerase II polypeptide A small phosphatase 1 (Homo sapiens, UniProt Q9GZU7); assay: inhibitors of CTDSP1, concentration-response testing, biochemical assay, absorbance-based, actives from ultra-high-throughput screening (AID 540297); assay type: functional
T3 sequence (Q9GZU7 whole entry): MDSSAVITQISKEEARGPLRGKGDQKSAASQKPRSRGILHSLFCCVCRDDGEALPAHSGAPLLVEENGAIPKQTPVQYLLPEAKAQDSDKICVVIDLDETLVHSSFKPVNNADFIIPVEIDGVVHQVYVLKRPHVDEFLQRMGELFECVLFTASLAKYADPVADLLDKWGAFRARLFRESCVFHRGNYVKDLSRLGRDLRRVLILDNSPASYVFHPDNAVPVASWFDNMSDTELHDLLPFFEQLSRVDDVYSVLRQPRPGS

[7] = intracellular Trypanosoma cruzi inhibitors in host cells – cell-based, plate reader, cherry-pick samples, set 3, dose response (AID 651818); assay type: functional;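 also: compounds incubated with infected cells for about four days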
Fatty acid synthase [8] = target: T4, Fatty acid synthase (Homo sapiens, UniProt P49327); assay: FAS thioesterase domain inhibitors, dose response, biochemical, endpoint fluorescence intensity, uHTS hits (AID 624327); assay type: functional;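 also: fluorescence from hydrolysis of an O-methyl fluorescein acyl ester substrate by the enzyme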
T4 sequence (P49327 whole entry, the tested form may be a part): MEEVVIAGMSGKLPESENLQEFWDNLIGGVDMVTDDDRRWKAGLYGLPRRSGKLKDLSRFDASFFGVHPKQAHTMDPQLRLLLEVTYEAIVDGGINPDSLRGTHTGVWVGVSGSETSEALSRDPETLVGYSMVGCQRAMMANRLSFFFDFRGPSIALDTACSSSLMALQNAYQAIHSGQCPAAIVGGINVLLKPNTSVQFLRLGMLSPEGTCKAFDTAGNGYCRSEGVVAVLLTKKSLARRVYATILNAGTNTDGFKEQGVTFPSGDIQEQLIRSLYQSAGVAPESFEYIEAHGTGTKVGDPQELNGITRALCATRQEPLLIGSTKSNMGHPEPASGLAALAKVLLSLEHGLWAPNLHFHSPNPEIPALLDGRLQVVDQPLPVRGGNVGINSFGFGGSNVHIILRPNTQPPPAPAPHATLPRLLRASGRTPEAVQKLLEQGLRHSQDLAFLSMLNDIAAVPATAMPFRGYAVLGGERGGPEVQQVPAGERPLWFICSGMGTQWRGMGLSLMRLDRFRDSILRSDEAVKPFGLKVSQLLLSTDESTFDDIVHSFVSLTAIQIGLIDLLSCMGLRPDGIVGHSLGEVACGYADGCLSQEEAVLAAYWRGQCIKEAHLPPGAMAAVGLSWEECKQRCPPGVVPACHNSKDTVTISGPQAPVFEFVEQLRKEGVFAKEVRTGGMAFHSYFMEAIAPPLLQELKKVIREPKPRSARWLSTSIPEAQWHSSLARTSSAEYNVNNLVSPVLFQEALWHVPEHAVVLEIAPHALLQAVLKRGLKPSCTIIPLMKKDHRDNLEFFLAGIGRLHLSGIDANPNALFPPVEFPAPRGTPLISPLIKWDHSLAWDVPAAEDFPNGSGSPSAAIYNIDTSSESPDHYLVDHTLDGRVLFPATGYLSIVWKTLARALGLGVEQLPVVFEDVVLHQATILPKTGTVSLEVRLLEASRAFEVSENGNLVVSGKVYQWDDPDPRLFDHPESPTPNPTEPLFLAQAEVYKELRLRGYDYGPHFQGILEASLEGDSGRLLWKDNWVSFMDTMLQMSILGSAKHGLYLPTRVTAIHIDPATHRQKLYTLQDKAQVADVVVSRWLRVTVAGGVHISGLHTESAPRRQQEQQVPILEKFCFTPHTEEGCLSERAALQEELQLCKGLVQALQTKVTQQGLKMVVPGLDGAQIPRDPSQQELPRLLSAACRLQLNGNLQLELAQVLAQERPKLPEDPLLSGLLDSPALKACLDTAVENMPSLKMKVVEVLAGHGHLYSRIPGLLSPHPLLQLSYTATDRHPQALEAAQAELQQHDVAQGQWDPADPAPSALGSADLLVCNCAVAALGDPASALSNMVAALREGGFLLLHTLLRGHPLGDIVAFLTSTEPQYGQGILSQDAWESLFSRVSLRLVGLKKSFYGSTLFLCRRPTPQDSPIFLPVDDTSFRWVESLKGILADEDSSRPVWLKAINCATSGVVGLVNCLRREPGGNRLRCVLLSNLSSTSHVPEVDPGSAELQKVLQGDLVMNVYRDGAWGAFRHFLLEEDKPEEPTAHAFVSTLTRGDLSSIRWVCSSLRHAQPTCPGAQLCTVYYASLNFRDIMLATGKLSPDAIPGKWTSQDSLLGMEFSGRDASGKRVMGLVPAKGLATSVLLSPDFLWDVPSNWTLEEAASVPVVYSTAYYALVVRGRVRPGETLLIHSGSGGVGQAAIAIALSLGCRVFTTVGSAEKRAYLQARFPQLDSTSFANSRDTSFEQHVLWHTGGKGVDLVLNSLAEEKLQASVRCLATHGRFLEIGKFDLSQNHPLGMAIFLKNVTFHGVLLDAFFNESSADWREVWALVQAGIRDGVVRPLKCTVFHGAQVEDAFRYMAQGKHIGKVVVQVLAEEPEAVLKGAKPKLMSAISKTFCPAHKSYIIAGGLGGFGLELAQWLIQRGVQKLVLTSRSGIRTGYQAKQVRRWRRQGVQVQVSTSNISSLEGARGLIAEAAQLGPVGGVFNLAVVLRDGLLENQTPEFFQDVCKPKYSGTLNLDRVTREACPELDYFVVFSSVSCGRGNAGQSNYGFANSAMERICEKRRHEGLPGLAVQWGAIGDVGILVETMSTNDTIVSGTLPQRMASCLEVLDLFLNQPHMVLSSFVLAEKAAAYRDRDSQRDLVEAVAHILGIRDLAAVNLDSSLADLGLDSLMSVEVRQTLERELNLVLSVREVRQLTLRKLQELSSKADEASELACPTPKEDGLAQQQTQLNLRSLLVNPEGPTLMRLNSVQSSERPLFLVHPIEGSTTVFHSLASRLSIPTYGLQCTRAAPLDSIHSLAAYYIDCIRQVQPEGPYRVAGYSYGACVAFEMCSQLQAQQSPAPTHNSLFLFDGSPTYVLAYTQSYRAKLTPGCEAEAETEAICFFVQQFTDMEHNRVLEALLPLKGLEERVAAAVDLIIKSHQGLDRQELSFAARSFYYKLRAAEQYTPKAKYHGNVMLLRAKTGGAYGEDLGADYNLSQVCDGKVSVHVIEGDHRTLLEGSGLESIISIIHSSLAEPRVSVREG

Fatty acid synthase [9] = target: T4, Fatty acid synthase; assay: FAS thioesterase domain inhibitors, dose response, biochemical, kinetic fluorescence intensity (AID 624326); assay type: functional;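 also: rate of fluorescence rise from hydrolysis of a fluorogenic O-methyl fluorescein ester substrate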
Protein skinhead-1 = target: T5, Protein skinhead-1 (Caenorhabditis elegans, UniProt P34707); assay type: functional
T5 sequence (P34707 whole entry): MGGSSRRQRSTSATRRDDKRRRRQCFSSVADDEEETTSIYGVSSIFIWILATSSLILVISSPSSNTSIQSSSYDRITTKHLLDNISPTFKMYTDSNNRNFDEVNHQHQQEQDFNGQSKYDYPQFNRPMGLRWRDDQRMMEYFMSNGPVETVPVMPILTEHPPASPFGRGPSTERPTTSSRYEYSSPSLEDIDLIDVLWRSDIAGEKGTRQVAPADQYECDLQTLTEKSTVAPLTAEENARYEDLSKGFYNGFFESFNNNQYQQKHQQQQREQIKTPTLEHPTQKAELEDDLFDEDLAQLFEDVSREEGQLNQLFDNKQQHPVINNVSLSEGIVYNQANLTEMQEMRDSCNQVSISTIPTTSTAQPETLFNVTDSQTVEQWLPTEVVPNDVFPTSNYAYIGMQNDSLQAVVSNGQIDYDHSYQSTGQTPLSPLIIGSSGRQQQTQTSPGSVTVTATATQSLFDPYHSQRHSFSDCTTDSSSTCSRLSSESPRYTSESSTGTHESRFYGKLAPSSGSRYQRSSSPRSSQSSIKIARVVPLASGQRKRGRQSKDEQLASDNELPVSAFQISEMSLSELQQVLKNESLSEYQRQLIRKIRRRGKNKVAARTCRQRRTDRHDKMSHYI

Vero = assay: cells; assay type: functional; conditions: Chlorocebus sabaeus
[10] = NIH-3T3 fibroblast cytotoxicity, dose response, cytotoxicity control, cell-based, fluorescence, Alamar Blue, secondary assay (AID 2327); assay type: functional;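 also: NIH-3T3 mouse fibroblasts cultured with fluconazole at 8 µg/mL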
[11] = C. albicans growth with fluconazole, confirmation, fluorescence, retest (AID 2467); assay type: functional, cell-based
[12] = growth suppression of PTEN-null colon cells, dose response, cell-based, HCT116 PTEN knockout (AID 1047); assay type: functional;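 also: HCT116 colon tumor cells with PTEN knocked out; cells exposed to compound for 60 hours before readout; potency for loss of cell viability measured by luminescence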
[13] = growth suppression of beta-catenin-knockout colon cells, dose response, cell-based, HCT116, human colon tumor (AID 1045); assay type: functional;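 also: HCT116 colon tumor cells with beta catenin knocked out; cells exposed to compound for 60 hours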
[14] = target: T6, Short transient receptor potential channel 4 (Mus musculus, UniProt Q9QUQ5); assay: mouse TRPC4 channel activators, dose response, cell-based, HEK293 TRPC4/mu-opioid, Fluo-4 calcium (AID 434937); assay type: functional
T6 sequence (Q9QUQ5 whole entry): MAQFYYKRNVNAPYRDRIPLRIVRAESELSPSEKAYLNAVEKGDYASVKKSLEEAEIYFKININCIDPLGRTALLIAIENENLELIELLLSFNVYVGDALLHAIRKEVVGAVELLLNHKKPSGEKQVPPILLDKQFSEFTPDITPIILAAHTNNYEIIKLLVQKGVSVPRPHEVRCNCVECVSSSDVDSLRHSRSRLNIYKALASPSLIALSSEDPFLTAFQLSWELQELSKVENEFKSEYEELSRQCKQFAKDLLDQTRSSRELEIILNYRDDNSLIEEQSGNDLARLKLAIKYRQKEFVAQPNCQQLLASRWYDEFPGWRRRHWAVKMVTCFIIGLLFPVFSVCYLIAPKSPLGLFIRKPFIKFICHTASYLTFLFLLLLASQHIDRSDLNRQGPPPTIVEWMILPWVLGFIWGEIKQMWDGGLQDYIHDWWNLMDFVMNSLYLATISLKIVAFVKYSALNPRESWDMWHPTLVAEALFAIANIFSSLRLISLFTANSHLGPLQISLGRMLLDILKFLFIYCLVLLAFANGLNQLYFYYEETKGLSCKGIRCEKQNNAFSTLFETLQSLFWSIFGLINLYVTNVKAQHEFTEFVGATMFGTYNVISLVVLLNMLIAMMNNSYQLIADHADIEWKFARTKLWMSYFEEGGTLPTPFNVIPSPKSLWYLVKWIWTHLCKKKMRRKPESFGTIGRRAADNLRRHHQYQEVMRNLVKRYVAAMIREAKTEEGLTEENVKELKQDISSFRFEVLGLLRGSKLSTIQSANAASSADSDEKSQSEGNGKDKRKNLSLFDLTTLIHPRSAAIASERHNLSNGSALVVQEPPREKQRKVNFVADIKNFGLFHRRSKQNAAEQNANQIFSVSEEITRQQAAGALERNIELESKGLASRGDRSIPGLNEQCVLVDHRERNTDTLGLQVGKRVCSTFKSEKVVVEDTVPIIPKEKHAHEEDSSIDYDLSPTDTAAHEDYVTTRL

Protein Wnt-3a = Protein Wnt-3a (Mus musculus, UniProt P27467); assay: Wnt3a-driven reporter signaling inhibition, dose response, selectivity assay for Gli-SUFU antagonist project, Wnt-LIGHT cells, luminescence (AID 651570); assay type: functional; conditions: read-out: IC50_Mean;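 also: Wnt-LIGHT reporter cells stimulated with conditioned medium from Wnt3a-producing cells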
Sequence of Protein Wnt-3a (P27467 whole entry): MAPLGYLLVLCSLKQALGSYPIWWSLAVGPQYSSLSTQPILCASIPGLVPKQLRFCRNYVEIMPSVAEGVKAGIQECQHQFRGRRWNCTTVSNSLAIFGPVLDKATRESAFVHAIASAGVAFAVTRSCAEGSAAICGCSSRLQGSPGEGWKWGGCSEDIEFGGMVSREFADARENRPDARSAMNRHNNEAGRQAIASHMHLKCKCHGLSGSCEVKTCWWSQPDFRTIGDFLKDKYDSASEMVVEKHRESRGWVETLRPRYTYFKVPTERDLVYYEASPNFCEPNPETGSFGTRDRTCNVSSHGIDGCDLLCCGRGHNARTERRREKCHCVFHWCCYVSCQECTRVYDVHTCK

Nonstructural protein 1 = Nonstructural protein 1 (Influenza A virus, UniProt Q194T2); assay type: functional, Influenza A virus (A/California/07/2009(H1N1))
Sequence of Nonstructural protein 1 (Q194T2 whole entry): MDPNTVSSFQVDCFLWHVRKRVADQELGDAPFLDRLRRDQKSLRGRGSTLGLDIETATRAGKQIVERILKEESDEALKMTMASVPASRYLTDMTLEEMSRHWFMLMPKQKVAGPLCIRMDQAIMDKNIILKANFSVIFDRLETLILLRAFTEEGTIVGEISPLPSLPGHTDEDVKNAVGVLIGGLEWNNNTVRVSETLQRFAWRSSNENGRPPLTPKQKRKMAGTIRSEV

Escherichia coli = assay: microbe, parasite or virus in culture
[15] = target: T7, Polyadenylate-binding protein 1 (Homo sapiens, UniProt P11940); assay: PABP1 MLLE–PAM2 interaction inhibitors, dose response, miRNA deadenylation inhibitor project, biochemical, fluorescence polarization, Cy5-PAM2 peptide, secondary (AID 602260); assay type: functional; conditions: read-out: IC50_Mean
T7 sequence (P11940 whole entry): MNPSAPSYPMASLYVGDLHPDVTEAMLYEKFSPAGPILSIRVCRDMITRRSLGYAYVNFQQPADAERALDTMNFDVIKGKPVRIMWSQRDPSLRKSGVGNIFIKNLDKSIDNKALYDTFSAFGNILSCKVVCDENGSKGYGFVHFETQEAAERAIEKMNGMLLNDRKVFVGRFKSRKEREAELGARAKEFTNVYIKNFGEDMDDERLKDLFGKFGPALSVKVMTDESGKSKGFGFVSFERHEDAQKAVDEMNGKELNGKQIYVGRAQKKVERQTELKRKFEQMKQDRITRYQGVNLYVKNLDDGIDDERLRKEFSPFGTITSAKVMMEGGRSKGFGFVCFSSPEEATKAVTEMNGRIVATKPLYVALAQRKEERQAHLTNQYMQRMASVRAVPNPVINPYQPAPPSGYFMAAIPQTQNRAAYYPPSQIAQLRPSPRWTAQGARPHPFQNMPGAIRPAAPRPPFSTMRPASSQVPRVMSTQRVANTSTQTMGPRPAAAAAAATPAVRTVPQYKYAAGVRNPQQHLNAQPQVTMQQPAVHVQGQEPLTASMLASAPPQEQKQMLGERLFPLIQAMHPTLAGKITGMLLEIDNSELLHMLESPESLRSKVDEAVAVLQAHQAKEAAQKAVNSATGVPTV

[16] = target: T7, Polyadenylate-binding protein 1; assay: PABP1 MLLE–PAM2 binding inhibitor potency, dose response, biochemical, fluorescence polarization, FITC-PAM2 peptide (AID 602259); assay type: functional; conditions: read-out: IC50_Mean

Cc1sc(-c2ccccn2)nc1OC(=O)c1ccc(F)cc1F
IC50 [1]: 3.57 µM (active)
IC50 [2]: 16.6 µM (active)

c1ccc(CNc2nc(-c3ccccn3)nc3ccccc23)cc1
EC50 [3]: 2.57 µM (active)
EC50 (Streptokinase A): > 150 µM (not active)
EC50 (Streptococcus): 6.86 µM (active)
AC50 (INS1): 2.62 µM (active)
AC50 [4]: 80.1 µM (active)

Cc1ccc(Nc2ncnc(-n3cccc3)n2)cc1Cl
AC50 [5]: > 52 µM (inactive)

C[C@H]1CN([C@@H](C)CO)C(=O)c2cccc(NC(=O)c3ccncc3)c2O[C@H]1CN(C)C(=O)Nc1ccccc1
IC50 [6]: 13.8 µM (active)
AC50 [7]: 2.61 µM (active)

Cc1ccc([N+](=O)[O-])cc1NC(=O)c1ccc(C(C)(C)C)cc1
IC50 (Fatty acid synthase [8]): 5.57 µM (active)
IC50 (Fatty acid synthase [9]): 4.59 µM (active)

Cc1cccc(NC(=O)CSc2cccc3cccnc23)c1C
AC50 [4]: 91.7 µM (active)

c1csc(Cn2nnnc2CN2CCN(c3nc4ccccc4s3)CC2)c1
IC50 (Protein skinhead-1): > 100 µM (inactive)

CCOC(=O)c1c(NC(=O)CN2CCN(C)CC2)sc(C(=O)Nc2ccccc2)c1C
CC50 (Vero): > 25 µM (active)

COc1ccccc1/C=C1\SC(=S)N(CCC(=O)NCCc2ccc(O)cc2)C1=O
CC50 (Vero): > 25 µM (active)

C[C@H](CO)N1C[C@H](C)[C@H](CN(C)S(=O)(=O)c2ccccc2)Oc2ccc(NC(=O)Nc3ccc(C(F)(F)F)cc3)cc2CC1=O
AC50 [7]: 4.13 µM (active)

COc1ccc(C2=Nn3c(nnc3-c3ccccn3)SC2)cc1
AC50 [4]: 125 µM (active)

S=C(Nc1ccccc1)Nc1nc2ccccc2n1CCOc1ccc(Cl)cc1
EC50 [10]: 11.1 µM (active)
EC50 [11]: 2.58 µM (active)
EC50 [12]: 17.1 µM (active)
EC50 [13]: 16 µM (active)
IC50 (Protein skinhead-1): > 100 µM (inactive)

Cc1ccc(C(=O)N/C(=C\c2cn(S(=O)(=O)N(C)C)c3ccccc23)C(=O)NCCN2CCOCC2)cc1
IC50 (Fatty acid synthase [8]): 12.7 µM (active)
IC50 (Fatty acid synthase [9]): 16.5 µM (active)

C[C@H](CO)N1C[C@H](C)[C@H](CN(C)Cc2ccc(C(F)(F)F)cc2)Oc2c(NC(=O)CCCCCC(=O)Nc3ccccc3N)cccc2C1=O
AC50 [7]: 1.92 µM (active)

C[C@H](CO)N1C[C@H](C)[C@H](CN(C)Cc2ccc(C(=O)Nc3ccccc3N)cc2)Oc2ccc(N(C)C)cc2CC1=O
AC50 [7]: 2.03 µM (active)

O=C(NCCc1cccc(Cl)c1)c1ccc(OC2CCN(Cc3ccccn3)CC2)cc1
EC50 [14]: 944 nM (active)
IC50 (Protein Wnt-3a): 28.8 µM (inactive)

O=C1C=C(c2cccc(Cl)c2O)C[C@@H](c2ccc(F)cc2)C1
IC50 [1]: 2.61 µM (active)
IC50 [2]: 1.14 µM (active)

Cc1ccccc1N(CC(=O)NCc1ccc2c(c1)OCO2)C(=O)C1CSC(=O)C1 (stereo not drawn)
IC50 (Fatty acid synthase [8]): 5.85 µM (active)
IC50 (Fatty acid synthase [9]): 4.48 µM (active)

O=[N+]([O-])c1ccc(O)c(/C=N/Nc2nc3ccccc3[nH]2)c1
EC50 [3]: 0.716 µM (active)
EC50 (Streptococcus): 1.56 µM (active)
IC50 (Nonstructural protein 1): 10.3 µM (active)
AC50 (INS1): 0.559 µM (active)
AC50 (Escherichia coli): 25.6 µM (active)

O=C(CSc1nc(-c2ccco2)cc(C(F)(F)F)n1)NC1CCCCCCC1
IC50 (Protein skinhead-1): > 100 µM (inactive)

CNc1cccc2c1C(=O)c1ccccc1C2=O
IC50 (Nonstructural protein 1): 8.18 µM (active)
IC50 [15]: > 66 µM (inactive)
IC50 [16]: 49.1 µM (inactive)
IC50 (Protein skinhead-1): > 100 µM (inactive)
